A short description of data set [1]: Apparent permeability across human Caco-2 cells after 7 days. The data set is classed as ADME, cell-based.
The subject of data set [2] is Hepatitis C virus. Put plainly: Antiviral activity against HCV 1b replication in human 2209-23 cells assessed as [3H]thymidine incorporation into cellular DNA by scintillation proximity assay. Type of data set: functional, organism-based, Hepacivirus hominis. The settings on record: genotype 1b. For orientation: Uptake of a labelled nucleoside into DNA is a usual measure of proliferation.

Data set [3] has as its system Hepatitis C virus. Put plainly: Inhibition of HCV 1b NS5B polymerase. Type of data set: organism-based, Hepatitis C virus subtype 1b.
Data set [4] is described as follows: Apparent permeability from apical to basolateral side of human Caco-2 cells after 21 days. In general terms: Passage across Caco-2 layers is used to estimate intestinal permeability.
Data set [5] in a line: Apparent permeability from basolateral to apical side of human Caco-2 cells after 21 days.
In data set [6] the test system is Hepatitis C virus. Put plainly: Inhibition of HCV 1b J4 NS5B Cdelta 21polymerase over expressed in Escherichia coli assessed as [alpha33P]UTP incorporation. Set-up: species or system Hepatitis C virus subtype 1b.
Data set [7] deals with Hepatitis C virus. The experiment in a line: Antiviral activity against HCV in human HuH7 cells by replicon assay. The data set is classed as functional, organism-based, Hepacivirus hominis. The settings on record: Huh-7. On the technique in general: In antiviral work, replicon cells carry a viral genome segment that copies itself.

Usually Papp stands for a coefficient for how fast a substance crosses the barrier. In general, EC50 refers to the concentration that produces a half-maximal response. A word on the IC50: it is the midpoint of a concentration-inhibition curve. Consider `O=c1c(C2=CS(=O)(=O)c3ccccc3N2)c(O)c2ccccc2n1Cc1ccc(F)cc1`, for which the Papp in data set [1] stood at 44 nm/s. Besides, in the data set with Hepatitis C virus [2], the EC50 stood at 0.79 µM. Moreover, in the data set on Hepatitis C virus [3], the IC50 came to 0.72 µM.

Take `O=c1c(C2=CS(=O)(=O)c3ccccc3N2)c(O)c2cc(F)ccc2n1Cc1ccc(F)cc1`: the 50% effective concentration (EC50) with Hepatitis C virus [2] stood at 0.7 µM. Moreover, the concentration for half-maximal inhibition (IC50) in the data set with Hepatitis C virus [3] amounted to 0.7 µM.

With `CC(C)CCn1cc(C2=NS(=O)(=O)c3ccccc3N2)c(=O)c2ccccc21`, the IC50 in the data set with Hepatitis C virus [3] is above 1000 µM.

For `CC(C)CCn1c(=O)c(C2=CS(=O)(=O)c3ccccc3N2)cc2ccccc21`, in the data set with Hepatitis C virus [3], the midpoint of inhibition, the IC50, lay at 868 µM.

For the compound `O=S1(=O)N=C(c2nc(Cc3ccc(F)cc3)c3ccccc3c2O)c2ccccc21`, the EC50 in the data set with Hepatitis C virus [2] stood at 0.44 µM. In the data set on Hepatitis C virus [3], this compound showed an IC50 of 2.2 µM.

Regarding `O=c1c(C2=CS(=O)(=O)c3ccccc3N2)c(O)c2ccccc2n1Cc1ccccc1F`, the EC50 with Hepatitis C virus [2] came out at 46 µM. Moreover, the IC50 with Hepatitis C virus [3] was 17.5 µM.

For `CC(C)CCn1c(=O)c(C2=NS(=O)(=O)c3ccccc3N2)cc2ccccc21`, in the data set on Hepatitis C virus [3], the IC50 turned out to be 682 µM.

On to `Cc1c(-c2ccccc2)c(O)c(C2=CS(=O)(=O)c3ccccc3N2)c(=O)n1CCC(C)C`, for which inhibition in the data set on Hepatitis C virus [3] was half-maximal at 87 µM (IC50).

For the compound `Cc1ccc2c(c1)c(O)c(C1=CS(=O)(=O)c3ccccc3N1)c(=O)n2Cc1ccc(F)cc1`, the EC50 in the data set on Hepatitis C virus [2] turned out to be 1.5 µM. Moreover, in the data set with Hepatitis C virus [3], the midpoint of inhibition, the IC50, lay at 1.5 µM.

In the data set with Hepatitis C virus [3], `CN1C(c2nc(Cc3ccc(F)cc3)c3ccccc3c2O)=CS(=O)(=O)c2ccccc21` gave an IC50 of 19.5 µM.

A word on the Papp A→B: it is how fast a substance crosses the layer from the apical side. For orientation: Papp B→A means the apparent permeability from the basolateral to the apical side of a cell layer. With `Cc1cc(Cn2c(=O)c(C3=CS(=O)(=O)c4ccccc4N3)c(O)c3cc(F)ccc32)ccc1F`, the EC50 with Hepatitis C virus [2] stood at 0.8 µM. This compound also showed an IC50 with Hepatitis C virus [3] of 0.4 µM. Besides, in data set [4], the Papp A→B was 5 nm/s. Moreover, in data set [5], the Papp B→A stood at 53 nm/s.

For the compound `N#Cc1cccc(Cn2c(=O)c(C3=CS(=O)(=O)c4ccccc4N3)c(O)c3cc(F)ccc32)c1`, inhibition in the data set with Hepatitis C virus [3] was half-maximal at 37 µM (IC50).

As to `COc1ccc2c(c1)c(O)c(C1=CS(=O)(=O)c3ccccc3N1)c(=O)n2CCC1CC1`, the EC50 in the data set on Hepatitis C virus [2] is 7.1 µM. Moreover, the IC50 in the data set with Hepatitis C virus [3] was determined as 3.8 µM.

With `CC(C)CCn1c(=O)c(C2=NS(=O)(=O)c3ccccc3N2)c(O)c2ccccc21`, the EC50 in the data set with Hepatitis C virus [2] was 0.87 µM. Also, the IC50 with Hepatitis C virus [6] is 0.03 µM; in the data set with Hepatitis C virus [3], 1.1 µM.

Consider `O=c1c(C2=CS(=O)(=O)c3ccccc3N2)c(O)c2cccnc2n1CCC1CC1`, for which the IC50 in the data set on Hepatitis C virus [3] came to 2.7 µM.

`O=c1c(C2=Nc3ccccc3S(=O)(=O)N2)c(O)c2cc(F)ccc2n1CCC1CC1`: the EC50 with Hepatitis C virus [2] stood at 0.26 µM. The IC50 was 0.01 µM in the data set on Hepatitis C virus [6], 0.1 µM in the data set on Hepatitis C virus [3] and 0.04 µM with Hepatitis C virus [7].

As to `Cc1ccc2c(c1)c(O)c(C1=CS(=O)(=O)c3ccccc3N1)c(=O)n2CCC1CC1`, the Papp in data set [1] was 94 nm/s. Besides, the EC50 in the data set with Hepatitis C virus [2] is 0.64 µM. Further, the IC50 in the data set on Hepatitis C virus [3] stood at 1.3 µM.

In the case of `O=c1c(C2=CS(=O)(=O)c3ccccc3N2)c(O)c2cc(F)ccc2n1Cc1ccc(F)c(F)c1`, in the data set on Hepatitis C virus [2], the EC50 came out at 1.5 µM. The compound further registered an IC50 in the data set with Hepatitis C virus [3] of 1.2 µM.

Consider `O=c1c(C2=CS(=O)(=O)c3ccccc3N2)c(O)c2cc(Cl)ccc2n1CCC1CC1`, for which, in the data set on Hepatitis C virus [2], the 50% effective concentration (EC50) is 1.6 µM. In the data set with Hepatitis C virus [3], this compound yielded an IC50 of 2.4 µM.

For `CC(C)CCn1c(=O)c(C2=CS(=O)(=O)c3ccccc3N2)c(O)c2cc(F)cnc21`, in the data set on Hepatitis C virus [2], the EC50 is 8.6 µM. The same compound yielded an IC50 with Hepatitis C virus [3] of 0.83 µM.

For the compound `O=S1(=O)C=C(c2nc(Cc3ccc(F)cc3)c3ccccc3c2O)Nc2ccccc21`, the EC50 in the data set with Hepatitis C virus [2] stood at 7.6 µM. In addition, the IC50 in the data set with Hepatitis C virus [3] worked out at 6.9 µM.

As to `CC(C)CCn1c(=O)c(C2=CS(=O)(=O)c3ccccc3N2)c(O)c2ccccc21`, the EC50 in the data set on Hepatitis C virus [2] is 2.5 µM. Further, half-maximal inhibition in the data set with Hepatitis C virus [3] (IC50) required 2.3 µM.

`CC(C)CCn1c(=O)c(C2=CS(=O)(=O)c3ccccc3N2)c(O)c2cccnc21` registered an IC50 in the data set on Hepatitis C virus [3] of 1.4 µM.

Turning to `O=c1c(C2=CS(=O)(=O)c3ccccc3N2)c(O)c2cc(F)ccc2n1CCC1CC1`, the Papp in data set [1] turned out to be 64 nm/s. Moreover, the EC50 in the data set on Hepatitis C virus [2] was 1.2 µM. The same compound showed an IC50 in the data set on Hepatitis C virus [3] of 1.1 µM. Besides, the Papp A→B in data set [4] stood at 6 nm/s. In data set [5], the basolateral-to-apical permeability (Papp B→A) was 71 nm/s.

The record behind these values is ChEMBL document CHEMBL1136948, “Non-nucleoside inhibitors of HCV NS5B polymerase. Part 1: Synthetic and computational exploration of the binding modes of benzothiadiazine and 1,4-benzothiazine HCV NS5b polymerase inhibitors” (Bioorg Med Chem Lett, 2009).
